In article PMC3242765, “Inhibitors of Alphavirus Entry and Replication Identified with a Stable Chikungunya Replicon Cell Line and Virus-Based Assays” (PLoS ONE, 2011):
Structures can show the parent of a compound that is named as a salt.

Assays:
CHIKV replicon = experiment: microbe, parasite or virus in culture; assay type: cell-based, Chikungunya virus (CHIKV)

Row | Structure (SMILES) | CHIKV replicon % left (CHIKV replicon) [%] | SFV replication % left (surviving fraction, remaining percentage of SFV replication) (SFV-Rluc) [%]
1 | COc1ccccc1-c1cc(=O)c2ccc3ccccc3c2o1 [2'-Methoxy-a-naphthoflavone] | 81.0 | 45.8
2 | O=c1c(-c2ccc(O)cc2)coc2cc(O)cc(O)c12 [Genistein] | 62.1 | 45.6
3 | O=c1c(O)c(-c2cc(O)c(O)c(O)c2)oc2cc(O)cc(O)c12 [Myricetin] | 49.1 | 2.0
4 | O=C(Oc1ccccc1)c1ccccc1O [Phenyl salicylate] | 94.3 | 118.2
5 | O=C(O)Cc1ccc(O)cc1 [4-Hydroxyphenylacetic acid] | 87.2 | 103.6
6 | C[C@]12CC[C@H](O)C[C@H]1CC[C@@H]1[C@@H]2CC[C@]2(C)[C@@H](C3=CC(=O)OC3)[C@@H](O)C[C@]12O [Gitoxigenin] | 81.4 | 102.7
7 | c1ccc(CN(CC2=NCCN2)c2ccccc2)cc1 [Antazoline hydrochloride] | 100.5 | 38.7
8 | COc1ccc2c(c1OC)C(=O)O[C@@H]2[C@H]1c2c(cc3c(c2OC)OCO3)CCN1C [Noscapine] | 78.4 | 103.5
9 | Cc1c(C(C)C)c(=O)n(-c2ccccc2)n1C [Propyphenazone] | 81.1 | 50.9
10 | COc1ccc2oc(=O)cc(C)c2c1 [6-Methoxy-4-methylcoumarin] | 85.4 | 66.6
11 | Cc1c(C)c2c(c(C)c1OC(=O)CCC(=O)O)CC[C@@](C)(CCC[C@H](C)CCC[C@H](C)CCCC(C)C)O2 [(+)-a-Tocopherol acid succinate] | 62.2 | 75.3
12 | Cc1ccc(C(C)C)c(O)c1 [Thymol] | 71.1 | 42.0
13 | Cc1ccccc1OCC(O)CO (centres unmarked) | 54.1 | 79.2
14 | CN(C)CC[C@@H](c1ccc(Br)cc1)c1ccccn1 [Dexbrompheniramine maleate] | 100.4 | 69.6
15 | C[C@@H]1O[C@@H](OC[C@H]2O[C@@H](Oc3c(-c4ccc(O)c(O)c4)oc4cc(O)cc(O)c4c3=O)[C@H](O)[C@@H](O)[C@@H]2O)[C@H](O)[C@H](O)[C@H]1O [Rutin] | 49.5 | 44.1
16 | O=c1c(O)c(-c2ccc(O)cc2)oc2cc(O)cc(O)c12 [Kaempferol] | 11.5 | 2.9
17 | O=C(/C=C/c1ccc(O)c(O)c1)O[C@H](Cc1ccc(O)c(O)c1)C(=O)O [Rosmarinic acid] | 98.8 | 120.3
18 | COc1c2occc2c(OC)c2c(=O)cc(C)oc12 [Khellin] | 95.4 | 120.6
19 | C[C@]12C=CC(=O)C=C1CC[C@@H]1[C@@H]2[C@@H](O)C[C@@]2(C)[C@H]1CC[C@]2(O)C(=O)CO [Prednisolone] | 84.3 | 104.2
20 | CCNCC(O)c1ccc(O)cc1 (centres unmarked) [1-(4-Oxyphenyl)-1-oxy-2-ethylamonoethane] | 105.4 | 86.9

Row | Structure (SMILES) | CHIKV replicon % left (CHIKV replicon) [%] | SFV replication % left (surviving fraction, remaining percentage of SFV replication) (SFV-Rluc) [%]
21 | Cc1cc(=O)oc2cc(O)c(O)cc12 [6,7-Dihydroxy-4-methylcoumarin] | 95.4 | 131.1
22 | O=C1NC2NC(=O)NC2N1 (centres unmarked) [Acetyleneurea [acetylene carbamide]] | 105.4 | 55.2
23 | Cc1cc2nc3c(=O)[nH]c(=O)nc-3n(C[C@H](O)[C@H](O)[C@H](O)CO)c2cc1C [Riboflavin] | 63.1 | 43.1
24 | CC(C)(C)NCC(O)COc1ccc(NC(=O)NC2CCCCC2)cc1 (centres unmarked) [Talinolol] | 91.8 | 76.9
25 | COc1cc2ccc(=O)oc2c(O)c1OC [Fraxidin] | 104.3 | 77.8
26 | Cn1c(=O)c2[nH]cnc2n(C)c1=O [Theophylline] | 100.4 | 87.8
27 | CCC(N)C(O)c1ccc(O)c(O)c1 (centres unmarked) [Ethylnorepinephrine] | 104.3 | 126.8
28 | CC(C)NCC(O)COc1cccc2ccccc12 (centres unmarked) [Propranolol hydrochloride] | 105.4 | 74.0
29 | CN1C(=O)CN=C(c2ccc(Cl)cc2)c2cc(Cl)ccc21 [4'-Chlorodiazepam] | 105.5 | 64.0
30 | CC(=O)c1cccc(O)c1 [3-Hydroxyacetophenone] | 97.4 | 125.8
31 | OCCOCCN1CCN(C(c2ccccc2)c2ccc(Cl)cc2)CC1 (centres unmarked) [Hydroxyzine hydrochloride] | 100.5 | 98.3
32 | Oc1ccc(/C=C/c2cc(O)cc(O)c2)cc1 [Resveratrol] | 79.8 | 103.4
33 | Cc1ccc(C)c(O)c1 [2,5-Dimethylphenol] | 100.5 | 84.6
34 | CC(=O)Nc1nnc(S(N)(=O)=O)s1 [Acetazolamide] | 102.2 | 71.3
35 | CCCc1cc(=O)[nH]c(=S)[nH]1 [6-Propyl-2-thiouracil] | 100.5 | 81.0
36 | CN1CCN=C(c2ccccc2)c2cc(Cl)ccc21 [Medazepam] | 101.7 | 87.5
37 | O=C1O[C@H]([C@@H](O)CO)C(O)=C1O [L-ascorbic acid] | 106.1 | 81.4
38 | Oc1ccc(O)cc1 [Hydroquinone] | 72.9 | 16.9
39 | CNC1=Nc2ccc(Cl)cc2C(c2ccccc2)=[N+]([O-])C1 [Chlordiazepoxide] | 100.6 | 54.3
40 | CC(C)NCC(O)c1ccc(Cl)c(Cl)c1.Cl (centres unmarked) [Dichloroisoproterenol hydrochloride] | 69.2 | 49.6
